Data: ChEMBL document CHEMBL3507680, “University of Dundee, Gates Library screen for HepG2 cell viability”

test: Human HepG2 cell viability assay in 384 well format; format: toxicity, cell-based; parameters: dose 125 nL, time 70.5 hour; concentration not given beside the values; settings: HepG2 cells, read-out: Inhibition

Point of comparison: `CC(Nc1ccc(CN2CCCC2=O)cc1)C(=O)N(C)CCC#N` (configuration not stated), cytotoxicity at 70.5 h 0.0537%. Against it:
- Cc1nc(C)c(C(=O)NCCNc2ncccn2)s1 — lower, -5.75%
- Cc1cccc(C(=O)N2CCCCC2c2ccc(CN(C)C)cc2)n1 (configuration not stated) — higher, 18.3%
- COc1ccc(OCCc2nnc(NC(C)=O)s2)cc1 — lower, -4.39%
- O=C(c1ncccn1)N1CCC2(CC1)COC(COc1ccccn1)C2 (configuration not stated) — higher, 10.9%
- CC(C)(C)[S+]([O-])CCNC(=O)c1cccc2ncccc12 (configuration not stated) — lower, -8.58%
- CC(=O)Nc1ccc(CNC2CC(=O)N(Cc3cccc(F)c3)C2)cc1 (configuration not stated) — lower, -8.05%
- Cc1cc(C(=O)N2CCc3ncc(CN4CCCCC4)n3CC2)no1 — higher, 21.9%
- Cc1nccc([C@@H]2C[C@@H]3CCN(S(=O)(=O)C4CC4)C[C@H]3O2)n1 — lower, -1.95%
- Cc1ccccc1OCC1CCCN(C(=O)Cc2c[nH]c(=O)[nH]c2=O)C1 (configuration not stated) — lower, -0.878%
- CC(C)N1CCc2c(CN(C)Cc3ccco3)cncc2C1 — higher, 5.22%
- COc1ccc(C(C)N2CCN(Cc3nccn3C)CC2)cc1Cl (configuration not stated) — lower, -6.8%
- COc1nonc1NCn1nc(C)cc1C — higher, 51.2%
- CNC(=O)C(C)NC(=O)c1cc(COc2ccc(OC)cc2Cl)[nH]n1 (configuration not stated) — lower, -2.95%
- c1ccc2c(c1)OCCC2NCc1ccc(N2CCOCC2)cc1 (configuration not stated) — lower, -2.79%
- CCN(C)C(=O)c1cccc(C(=O)N(C)Cc2cccc(O)c2)c1 — higher, 25.8%
- COCCC(=O)N(C)CCC1=CCN(C)CC1 — higher, 33%
- CC(C)SCCn1ccc2[nH]c(=O)c(C#N)cc2c1=O — lower, -8.8%
- COC(=O)CC(c1cccs1)c1oc(C)cc(=O)c1O (configuration not stated) — lower, -7.87%
- N#Cc1cnc(N2Cc3cnn(Cc4ccc(F)cc4)c3C2)nc1N — lower, -6.63%
- CCOCCNC(=O)c1ccc(OC)cc1I — lower, -6.65%
- CC(=O)N(C)C1CCN(C(=O)NCC(C)Cc2cccs2)CC1 (configuration not stated) — lower, -2.57%
- COc1ccc2c(c1)OCC(Cc1ccc(N(C)C)nc1)C2 (configuration not stated) — lower, -4.83%
- C[C@@H]1CCC[C@H](C)N1CC(=O)N1CCc2[nH]c(-c3ccccc3)nc2C1 — higher, 27%
- Cc1ccc(C2COCCN2C(=O)c2ccsc2)o1 (configuration not stated) — lower, -8.5%
- CC(=O)N1N=C(c2ccccc2)OC1C(=O)NCCc1ccc(C)cc1 (configuration not stated) — higher, 0.438%
- COc1c(C2CCCN2C(=O)c2ccnc(N(C)C)c2)c(C)nn1C (configuration not stated) — lower, -6.74%
- CC(C)(C)NC(=O)COc1ccc(Oc2ccccn2)cc1 — lower, -6.32%
- CN(C)c1cccc(C(=O)N2C[C@H]3CC[C@@H]2CN(C(=O)C2CCC2)C3)c1 — higher, 0.254%
- CNc1snc(C)c1C(=O)N1CCCC(n2nc(C)cc2C)C1 (configuration not stated) — higher, 23.1%
- COc1ccnc(N2CCN(C(=O)c3cnn(C)c3C3CC3)CC2)n1 — lower, -6.28%
- O=C(c1cc(=O)n(-c2ccccc2)[nH]1)N1CCCC(c2ccn[nH]2)C1 (configuration not stated) — higher, 48%
- CNC(=O)C(NC(C)=O)c1ccc(F)c(F)c1 (configuration not stated) — lower, -1.65%
- COCCS(=O)(=O)NCc1ccc(N(C)C)c(C)c1 — lower, -7.82%
- CC(NC(=O)N(C)Cc1ccc2c(c1)OCO2)c1nncn1C (configuration not stated) — lower, -8.56%
- c1ccc(Oc2nccc3occc23)c(CN2CCCCC2)c1 — higher, 6.4%
- CC1CCCN(CCCNC(=O)Cc2csc(-c3ccoc3)n2)C1 (configuration not stated) — lower, -3.83%
- CC(NC(=O)NCCC1=CCCCC1)c1nncn1C (configuration not stated) — higher, 35.8%
- COc1ccccc1CCNC(=O)CC1(Cn2cnnn2)CCCCC1 — lower, -20.4%
- CCc1nc(CN(C)C2CCN(CCNS(=O)(=O)CC)C2)no1 (configuration not stated) — higher, 46.2%
- Cc1noc(-c2ccnc(N3CCN(C4CCOCC4)CC3)c2)n1 — higher, 10.1%
- COc1ccc(-n2cnc(Cl)c2CO)cc1 — lower, -2.44%
- O[C@@H]1CN(Cc2cccc(F)c2)CC[C@H]1NCc1ccccn1 — higher, 12.7%
- c1cc(CN2CCOCC3(C2)CN(Cc2nccs2)CCO3)ccn1 (configuration not stated) — higher, 17.5%
- CCC(NC(=O)c1ccc(COC)o1)c1nc(C(F)(F)F)cs1 (configuration not stated) — higher, 4.55%
- Nc1nc(C2CCN(C(=O)c3cnco3)CC2)cs1 — lower, -5.18%
- CN(C)C(=O)CN1CCC2(CCN(S(=O)(=O)C3CC3)CC2)C1=O — lower, -11.2%
- CC(C)NC(=O)C[C@@H]1CCNC[C@@H]1Cc1cc(-c2ccccc2)on1 — lower, -1.73%
- Cc1ccc(NC(=O)NCCc2cnn(C)c2)c(N(C)C)n1 — higher, 0.893%
- CCc1cnc(CNC(=O)NCCCO)s1 — lower, -3.22%
- Cn1cc(-c2nnc3sc(C4CC4)nn23)cn1 — lower, -4.13%
- CCC(Oc1ccc(N(C)S(C)(=O)=O)cc1)C(=O)N(C)C (configuration not stated) — lower, -3.36%
- COCc1nc(C(=O)N2CCCC2Cn2cc(C)cn2)cs1 (configuration not stated) — lower, -6.43%
- CCOCCN1CCN(c2ncccc2C#N)CC1CC (configuration not stated) — lower, -3.73%
- Cc1nc(C(C)(C)NCc2ncc(C(C)C)o2)sc1C — lower, -5.11%
- CCCOc1cc(CNC(=O)Nc2cccc(C(C)=O)c2)ccn1 — lower, -0.91%
- CCc1nc(C2CCCN2C(=O)c2ccc3c(c2)[nH]c(=O)n3C)no1 (configuration not stated) — higher, 2.37%
- COCC(=O)N1CCCN(Cc2c(C)nc3ccc(Cl)cn23)CC1 — higher, 2.35%
- O=c1n(CC2CCCO2)nc(CC2CCNCC2)n1-c1ccccc1 (configuration not stated) — lower, -11%
- O=C(O)Cn1ccc(=O)c2ccccc21 — lower, -14.9%
- Cc1ccc2nc(C(=O)N(C)[C@@H]3CC[C@@H](N4CCCC4)[C@@H]3O)cn2c1 — lower, -3.38%
- c1ccc2c(N3CCOC(Cn4cccn4)C3)ncnc2c1 (configuration not stated) — lower, -4.3%
- CC1=N[C@@]2(CC[C@@H]3CN(S(=O)(=O)CC(C)C)C[C@@H]32)C(=O)N1CC(C)C — lower, -5.23%
- COc1ccccc1S(=O)(=O)N1CCC2(CC1)OCCCC2O (configuration not stated) — lower, -6.84%
- CCc1ncc2c(n1)CN(Cc1nc(-c3cccnc3)no1)CC2 — lower, -6.75%
- O=C(c1cnccn1)N1CC[C@H]2[C@H]1CCN2S(=O)(=O)C1CC1 — lower, -4.25%
- CN1C(=O)CCc2cc(NS(=O)(=O)Cc3cccc(F)c3)ccc21 — lower, -8.13%
- Cc1nc(NCCSc2cnn[nH]2)c2cccnc2n1 — higher, 5.69%
- O=c1cc(CN2CCCC2)nc2n1CCCN(Cc1ccsc1)C2 — lower, -17.6%
- Cc1cnc(NC(=O)CSC2CCc3ccccc3NC2=O)s1 (configuration not stated) — higher, 1.54%
- Cc1nc(CCCNC(=O)c2c(F)cc(F)cc2F)n[nH]1 — lower, -7.17%
- NC(=O)CN1CCCN(C(=O)c2ccn(-c3ccc(F)cc3)n2)CC1 — higher, 6.29%
- CC1CN(C)c2ccccc2CN1C(=O)c1cscn1 (configuration not stated) — lower, -5.75%
- CN(C)C(=O)N1CCCC(C(=O)N(C)Cc2cnc(N)nc2)C1 (configuration not stated) — lower, -10.7%
- CSc1ccsc1C(=O)N1CCN(CC(C)(C)O)CC1 — lower, -0.902%
- Cc1ncc(C(=O)NCCNc2ncccc2C#N)s1 — lower, -0.109%
- Brc1cnc(NCc2ccccc2N2CCOCC2)nc1 — lower, -1.21%
- Cn1ccc(CN2CCC3(CC2)CC(Nc2cnccn2)CO3)n1 (configuration not stated) — lower, -1.03%
- Cc1csc(CNc2cnn(CC(F)(F)F)c2)n1 — lower, -2.55%
- Cc1noc(C)c1CN1CCC(N(C)Cc2noc(C(C)C)n2)C1 (configuration not stated) — higher, 5.99%
- CS(=O)(=O)CCC(=O)NC1CC(c2ccccc2Cl)C1 (configuration not stated) — higher, 2.56%
- Cc1nnc(N2CCCC3(CN(Cc4ccc(F)cc4)CCO3)C2)o1 (configuration not stated) — lower, -1.36%
